Results from patent publication US20250136606A1, “MODULATORS OF TRPML, THEIR COMPOSITIONS AND METHODS OF USE” (Caraway Therapeutics, Inc., priority 2021, published 2025).

What follows are compounds tested against TRPML1 (Homo sapiens, UniProt Q9GZU1) (assay: Fluorescent TRPML1 assay (Fluo4-AM calcium fluorescence in doxycycline-induced HEK-293 Trex cells)). Conditions: fluorescent calcium assay.
Format: cell-based
Protocol: HEK-293 Trex cells were stably transfected with a construct consisting of the human coding sequence for TRPML1 cloned into the […] plasmid pCDNA5 T/O. Mutations were introduced into the TRPML1 sequence to facilitate expression on the cell surface (Silvia Vergarajauregui, Rosa Puertollano, Traffic. 2006 March; 7(3): 337-353). Briefly, the cells are cultured in 150 mm round tissue culture dishes containing 20 mL of media. The day before the assay the cells are rinsed with DPBS-Ca—Mg and then treated briefly with Trypsin-EDTA. The Trypsin-EDTA is diluted with growth media, and cells are counted. 38×10^6 cells are re-plated into 150 mm round tissue culture dishes in media containing 0.5 ug/mL doxycycline to induce expression of hTRPML1.
The day of the experiment cells are lifted from the plates as above and collected by centrifugation. The cells are then suspended in dye loading buffer consisting of Ringer's solution supplemented with 0.1% Pluronic Acid and 1 micromolar Fluo4-AM dye. Cells are loaded for ˜60 minutes in the dark with occasional mixing. The cells are collected by centrifugation, the loading media aspirated, and the cells resuspended in 25 mL Ringer's solution and incubated ˜60 minutes in the dark. The cells are again collected by centrifugation, rinsed in Ringer's Solution and resuspended to […] in modified Ringer's solution containing 10 mM calcium.
Compounds are dissolved to a concentration of 10 millimolar with DMSO. Compound plates are created by dispensing compounds into 384 well black wall clear bottom plates (Greiner 781091). Positive and negative controls are included on each plate. Typically, different amounts of each compound are tested ranging from 100 nanoMoles (20 micromolar final concentration) decreasing in half-log steps to 31 picoMoles (6 nanomolar final concentration). Each concentration is typically tested in triplicate.
50 microliters of dye-loaded cells are dispensed into each well of the compound assay plate created above. The fluorescence in each well is then determined with an excitation wavelength of 480 nm and an emission wavelength of 540 nm using either a Molecular Devices SpectraMax multimode plate reader or a Hamamatsu FDSS/uCell plate imager.
The resulting fluorescence for each well is exported as an ascii file and loaded into our LIMS for analysis. The percent activity of each compound at each concentration is determined by comparison to the positive and negative control wells included in each plate.
EC50 values were calculated using a non-linear regression of Prism. In the table, “A” indicates an EC50 of less than 100 nM, “B” indicates an EC50 range from 100 nM to 500 nM; “C” indicates an EC50 range from 500 nM to 2 μM; and “D” indicates an EC50 greater than 2 μM.

TRPML1, sequence (Q9GZU1 whole entry L15A/L16A/L577A/L578A, form open): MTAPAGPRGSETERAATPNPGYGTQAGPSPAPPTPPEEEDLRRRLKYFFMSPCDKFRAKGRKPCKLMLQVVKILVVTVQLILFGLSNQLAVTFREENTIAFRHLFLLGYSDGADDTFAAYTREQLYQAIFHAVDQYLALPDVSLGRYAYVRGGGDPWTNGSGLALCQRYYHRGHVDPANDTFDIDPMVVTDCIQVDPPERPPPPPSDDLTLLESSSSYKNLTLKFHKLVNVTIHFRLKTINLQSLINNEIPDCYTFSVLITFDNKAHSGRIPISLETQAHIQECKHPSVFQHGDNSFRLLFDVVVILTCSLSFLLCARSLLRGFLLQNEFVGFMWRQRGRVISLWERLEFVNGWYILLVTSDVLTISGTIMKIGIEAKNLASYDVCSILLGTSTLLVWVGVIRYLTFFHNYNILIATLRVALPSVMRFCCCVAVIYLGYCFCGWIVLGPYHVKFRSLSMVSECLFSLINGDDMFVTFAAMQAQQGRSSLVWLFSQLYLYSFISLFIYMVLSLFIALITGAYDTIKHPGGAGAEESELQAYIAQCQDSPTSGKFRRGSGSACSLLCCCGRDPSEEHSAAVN

EC50 | SMILES
< 100 nM | CC(C)(C)OC(=O)N1CCN(c2ncnc3c2c(C2CC2)cn3-c2cc(F)cc(F)c2)C[C@@H]1C(F)(F)F [Compound 276, tert-butyl (R)-4-(5-cyclopropyl-7-(3,5-difluorophenyl)-7H-pyrrolo[2,3-d]pyrimidin-4-yl)-2-(trifluoromethyl)piperazine-1-carboxylate]
< 100 nM | C[C@@H]1CN(c2ncnc3c2c(N2CCCC2)cn3-c2cccc(C#N)c2)CCN1C(=O)OC(C)(C)C [Compound 277, tert-butyl (R)-4-(7-(3-cyanophenyl)-5-(pyrrolidin-1-yl)-7H-pyrrolo[2,3-d]pyrimidin-4-yl)-2-methylpiperazine-1-carboxylate]
500 to 2000 nM | COc1cccc(-n2cc(-c3ccccn3)c3c(N4CCN(C(=O)OC(C)(C)C)C[C@@H]4C)ncnc32)c1 [Compound 278, tert-butyl (S)-4-(7-(3-methoxyphenyl)-5-(pyridin-2-yl)-7H-pyrrolo[2,3-d]pyrimidin-4-yl)-3-methylpiperazine-1-carboxylate]
100 to 500 nM | C[C@H]1CN(C(=O)OC(C)(C)C)CCN1c1ncnc2c1c(-c1ccccn1)cn2-c1cccc(OC(F)(F)F)c1 [Compound 279, tert-butyl (S)-3-methyl-4-(5-(pyridin-2-yl)-7-(3-(trifluoromethoxy)phenyl)-7H-pyrrolo[2,3-d]pyrimidin-4-yl)piperazine-1-carboxylate]
100 to 500 nM | C[C@H]1CN(C(=O)OC(C)(C)C)CCN1c1ncnc2c1c(-c1ccccn1)cn2-c1cccc(C#N)c1 [Compound 280, tert-butyl (S)-4-(7-(3-cyanophenyl)-5-(pyridin-2-yl)-7H-pyrrolo[2,3-d]pyrimidin-4-yl)-3-methylpiperazine-1-carboxylate]
< 100 nM | C[C@H]1CN(C(=O)OC(C)(C)C)CCN1c1ncnc2c1c(-c1cccnc1)cn2-c1cccc(OC(F)(F)F)c1 [Compound 281, tert-butyl-(S)-3-methyl-4-(5-(pyridin-3-yl)-7-(3-(trifluoromethoxy)phenyl)-7H-pyrrolo [2,3-d]pyrimidin-4-yl)piperazine-1-carboxylate]
100 to 500 nM | C[C@H]1CN(C(=O)OC(C)(C)C)CCN1c1ncnc2c1c(-c1cccnc1)cn2-c1cccc(C#N)c1 [Compound 282, tert-butyl-(S)-4-(7-(3-cyanophenyl)-5-(pyridin-3-yl)-7H-pyrrolo[2,3-d]pyrimidin-4-yl)-3-methylpiperazine-1-carboxylate]
500 to 2000 nM | C[C@H]1CN(C(=O)OC(C)(C)C)CCN1c1ncnc2c1c(C1CCOCC1)nn2-c1cccc(Cl)c1 [Compound 284, tert-butyl (S)-4-(1-(3-chlorophenyl)-3-(tetrahydro-2H-pyran-4-yl)-1H-pyrazolo[3,4-d]pyrimidin-4-yl)-3-methylpiperazine-1-carboxylate]
< 100 nM | C[C@H]1CN(C(=O)OC(C)(C)C)CCN1c1ncnc2c1c(N1CCCC1)cn2-c1cccc(C#N)c1 [Compound 285, tert-butyl (S)-4-(7-(3-cyanophenyl)-5-(pyrrolidin-1-yl)-7H-pyrrolo[2,3-d]pyrimidin-4-yl)-3-methylpiperazine-1-carboxylate]
100 to 500 nM | C[C@@H]1CCCN1c1cn(-c2cccc(Cl)c2)c2ncnc(N3CCN(C(=O)OC(C)(C)C)C[C@@H]3C)c12 [Compound 286, tert-butyl (S)-4-(7-(3-chlorophenyl)-5-((R)-2-methylpyrrolidin-1-yl)-7H-pyrrolo[2,3-d]pyrimidin-4-yl)-3-methylpiperazine-1-carboxylate]
< 100 nM | C[C@@H]1CN(c2ncnc3c2c(N2CCCCC2)cn3-c2cccc(Cl)c2)CCN1C(=O)OC(C)(C)C [Compound 287, tert-butyl (R)-4-(7-(3-chlorophenyl)-5-(piperidin-1-yl)-7H-pyrrolo[2,3-d]pyrimidin-4-yl)-2-methylpiperazine-1-carboxylate]
100 to 500 nM | COc1cc(F)cc(-n2cc(C3CC3)c3c(N4CCN(C(=O)OC(C)(C)C)C[C@@H]4C)ncnc32)c1 [Compound 288, tert-butyl (S)-4-(5-cyclopropyl-7-(3-fluoro-5-methoxyphenyl)-7H-pyrrolo[2,3-d]pyrimidin-4-yl)-3-methylpiperazine-1-carboxylate]
100 to 500 nM | COc1cc(OC)cc(-n2cc(C3CC3)c3c(N4CCN(C(=O)OC(C)(C)C)C[C@@H]4C)ncnc32)c1 [Compound 289, tert-butyl (S)-4-(5-cyclopropyl-7-(3,5-dimethoxyphenyl)-7H-pyrrolo[2,3-d]pyrimidin-4-yl)-3-methylpiperazine-1-carboxylate]
< 100 nM | C[C@H]1CN(C(=O)OC(C)(C)C)CCN1c1ncnc2c1c(C1CC1)cn2-c1ccc(F)c(C#N)c1 [Compound 290, tert-butyl (S)-4-(7-(3-cyano-4-fluorophenyl)-5-cyclopropyl-7H-pyrrolo[2,3-d]pyrimidin-4-yl)-3-methylpiperazine-1-carboxylate]
< 100 nM | C[C@H]1CN(C(=O)OC(C)(C)C)CCN1c1ncnc2c1c(C1CC1)cn2-c1cc(F)cc(C#N)c1 [Compound 291, tert-butyl (S)-4-(7-(3-cyano-5-fluorophenyl)-5-cyclopropyl-7H-pyrrolo[2,3-d]pyrimidin-4-yl)-3-methylpiperazine-1-carboxylate]
100 to 500 nM | C[C@H]1CN(C(=O)OC(C)(C)C)CCN1c1ncnc2c1c(C1CC1)cn2-c1cc(C#N)cc(C#N)c1 [Compound 292, tert-butyl (S)-4-(5-cyclopropyl-7-(3,5-dicyanophenyl)-7H-pyrrolo[2,3-d]pyrimidin-4-yl)-3-methylpiperazine-1-carboxylate]
500 to 2000 nM | COc1cccc(-n2cc(-c3nccnc3C)c3c(N4CCN(C(=O)OC(C)(C)C)C[C@@H]4C)ncnc32)c1 [Compound 293, tert-butyl (S)-4-(7-(3-methoxyphenyl)-5-(3-methylpyrazin-2-yl)-7H-pyrrolo[2,3-d]pyrimidin-4-yl)-3-methylpiperazine-1-carboxylate]
500 to 2000 nM | Cc1nccnc1-c1cn(-c2cccc(C#N)c2)c2ncnc(N3CCN(C(=O)OC(C)(C)C)C[C@@H]3C)c12 [Compound 294, tert-butyl (S)-4-(7-(3-cyanophenyl)-5-(3-methylpyrazin-2-yl)-7H-pyrrolo[2,3-d]pyrimidin-4-yl)-3-methylpiperazine-1-carboxylate]
500 to 2000 nM | COc1cccc(-n2cc(-c3cnccn3)c3c(N4CCN(C(=O)OC(C)(C)C)C[C@@H]4C)ncnc32)c1 [Compound 295, tert-butyl (S)-4-(7-(3-methoxyphenyl)-5-(pyrazin-2-yl)-7H-pyrrolo[2,3-d]pyrimidin-4-yl)-3-methylpiperazine-1-carboxylate]
100 to 500 nM | C[C@H]1CN(C(=O)OC(C)(C)C)CCN1c1ncnc2c1c(-c1cnccn1)cn2-c1cccc(OC(F)(F)F)c1 [Compound 296, tert-butyl (S)-3-methyl-4-(5-(pyrazin-2-yl)-7-(3-(trifluoromethoxy)phenyl)-7H-pyrrolo[2,3-d]pyrimidin-4-yl)piperazine-1-carboxylate]
500 to 2000 nM | C[C@H]1CN(C(=O)OC(C)(C)C)CCN1c1ncnc2c1c(-c1cnccn1)cn2-c1cccc(C#N)c1 [Compound 297, tert-butyl (S)-4-(7-(3-cyanophenyl)-5-(pyrazin-2-yl)-7H-pyrrolo[2,3-d]pyrimidin-4-yl)-3-methylpiperazine-1-carboxylate]
500 to 2000 nM | C[C@H]1CN(C(=O)OC(C)(C)C)CCN1c1ncnc2c1c(N1CCC[C@H]1CO)cn2-c1cccc(Cl)c1 [Compound 298, tert-butyl (S)-4-(7-(3-chlorophenyl)-5-((S)-2-(hydroxymethyl)pyrrolidin-1-yl)-7H-pyrrolo[2,3-d]pyrimidin-4-yl)-3-methylpiperazine-1-carboxylate]
< 100 nM | C[C@H]1CN(C(=O)OC(C)(C)C)CCN1c1ncnc2c1c(N1CCCC1)cn2-c1cc(F)c(F)c(F)c1 [Compound 356, tert-butyl (S)-3-methyl-4-(5-(pyrrolidin-1-yl)-7-(3,4,5-trifluorophenyl)-7H-pyrrolo[2,3-d]pyrimidin-4-yl)piperazine-1-carboxylate]
< 100 nM | C[C@H]1CN(C(=O)OC(C)(C)C)CCN1c1ncnc2c1c(C1CC1)nn2-c1cccc(C#N)c1 [Compound 357, tert-butyl (S)-4-(1-(3-cyanophenyl)-3-cyclopropyl-1H-pyrazolo[3,4-d]pyrimidin-4-yl)-3-methylpiperazine-1-carboxylate]
< 100 nM | C[C@H]1CN(C(=O)OC(C)(C)C)CCN1c1ncnc2c1c(N1CCC(C)(C)C1)cn2-c1cccc(C#N)c1 [Compound 358, tert-Butyl (S)-4-(7-(3-cyanophenyl)-5-(3,3-dimethylpyrrolidin-1-yl)-7H-pyrrolo[2,3-d]pyrimidin-4-yl)-3-methylpiperazine-1-carboxylate]
